Data published in paper PMC8342319, “Predicting blood-to-plasma concentration ratios of drugs from chemical structures and volumes of distribution in humans” (Molecular Diversity, 2021).
Like-named read-outs stand apart in the source and are kept apart here.

How the values were obtained:
[1] = human, cited from earlier work
[2] = human
plasma protein = details: cited from earlier work; for fp_Human (free fraction in plasma): human
[3] = human, cited from earlier work; remark: listed apart in the source
[4] = cited from earlier work
[5] = mean if multiple values reported, ref numbers in Table S2 (supplement reference list)
[6] = collected value, median if multiple values were reported, ref: Table S1
[7] = intravenous, median if multiple values were reported, ref numbers in Table S1
[8] = human plasma free fraction, median if multiple values were reported, ref numbers in Table S1
[9] = human, intravenous, median if multiple values were reported, ref numbers in Table S1
[10] = human, intravenous, median if multiple values reported, Reference of Table S1
[11] = intravenous, median if multiple values reported, Reference of Table S1

Row | SMILES | in vivo MRT_(hr)_Human [2] | in vivo Vd_(L/kg)_Human [3, 7] | in vivo CL_(L/hr/kg)_Human [4, 9] | other results
1 | COc1cc2nc(N(C)CCCNC(=O)C3CCCO3)nc(N)c2cc1OC (stereo not shown) [Alfuzosin, reference compound] | – | – | – | Rb_Human (blood-to-plasma concentration ratio) [1, 5]: 0.82
2 | CC[C@H]1OC(=O)[C@H](C)[C@@H](O[C@H]2C[C@@](C)(OC)[C@@H](O)[C@H](C)O2)[C@H](C)[C@@H](O[C@@H]2O[C@H](C)C[C@H](N(C)C)[C@H]2O)[C@](C)(OC)C[C@@H](C)C(=O)[C@H](C)[C@@H](O)[C@]1(C)O [Clarithromycin, reference compound] | – | – | – | Rb_Human (blood-to-plasma concentration ratio) [1, 5]: 0.64
3 | Nc1ccc(S(=O)(=O)c2ccc(N)cc2)cc1 [Dapsone] | 28.819 h | 0.830 L/kg | – | fp_Human (free fraction in plasma) (plasma protein; [6]): 0.315
4 | CNCCC(Oc1ccc(C(F)(F)F)cc1)c1ccccc1 (stereo not shown) [Fluoxetine, reference compound] | – | – | – | Rb_Human (blood-to-plasma concentration ratio) [1, 5]: 0.90
5 | CNC(C)C1CCC(N)C(OC2C(N)CC(N)C(OC3OCC(C)(O)C(NC)C3O)C2O)O1 (stereo not shown) [Gentamicin] | 5.500 h | – | – | fp_Human (free fraction in plasma) (plasma protein; plasma): 1.000
6 | COc1ccc(Cl)cc1C(=O)NCCc1ccc(S(=O)(=O)NC(=O)NC2CCCCC2)cc1 [Glyburide] | 1.626 h | 0.080 L/kg | – | fp_Human (free fraction in plasma) (plasma protein; [6]): 0.021
7 | O=C(CCCN1CCC(O)(c2ccc(Cl)cc2)CC1)c1ccc(F)cc1 [Haloperidol] | 37.393 h | 17.500 L/kg | – | fp_Human (plasma protein; [8]): 0.100; fp_Human (free fraction in plasma) (plasma protein; [6]): 0.100
8 | NNc1nncc2ccccc12 [Hydralazine] | 0.294 h | 1.500 L/kg | 5.100 L/h/kg | fp_Human (free fraction in plasma) (plasma protein; [6]): 0.120
9 | C/C(=C\c1csc(C)n1)[C@@H]1C[C@@H]2O[C@]2(C)CCC[C@H](C)[C@H](O)[C@@H](C)C(=O)C(C)(C)[C@@H](O)CC(=O)N1 [Ixabepilone, reference compound] | – | – | – | Rb_Human (blood-to-plasma concentration ratio) [1, 5]: 0.72
10 | CNC1(c2ccccc2Cl)CCCCC1=O (stereo not shown) [Ketamine] | 2.544 h | – | – | fp_Human (free fraction in plasma) (plasma protein; [6]): 0.770; in vivo Vd_(L/kg)_Human ([3]; in vivo, iv): 2.900 L/kg
11 | C[C@H]1COc2c(N3CCN(C)CC3)c(F)cc3c(=O)c(C(=O)O)cn1c23 [Levofloxacin] | 37.281 h | 4.250 L/kg | 0.114 L/h/kg | –
12 | CC(=O)NC[C@H]1CN(c2ccc(N3CCOCC3)c(F)c2)C(=O)O1 [Linezolid] | 5.370 h | 0.580 L/kg | 0.117 L/h/kg | fp_Human (plasma protein; [8]): 0.690
13 | CCCCc1nc(Cl)c(CO)n1Cc1ccc(-c2ccccc2-c2nn[nH]n2)cc1 [Losartan] | 0.752 h | 0.370 L/kg | 0.489 L/h/kg | –
14 | CC(C)Oc1ccccc1N1CCN(Cc2cccc(C(=O)N3CCCCC3)c2)CC1 [Mazapertine] | 4.160 h | 1.540 L/kg | 0.370 L/h/kg | –
15 | Cc1cccc(C)c1NC(=O)C1CCCCN1C (stereo not shown) [Mepivacaine, reference compound] | – | – | – | Rb_Human (blood-to-plasma concentration ratio) [1, 5]: 0.91
16 | CN(C)C(=N)N=C(N)N [Metformin] | 1.441 h | 0.640 L/kg | 0.444 L/h/kg | fp_Human (plasma protein; [8]): 1.000
17 | C=CCC1(C(C)C#CCC)C(=O)N=C(O)N(C)C1=O (stereo not shown) [Methohexital, reference compound] | – | – | – | Rb_Human (blood-to-plasma concentration ratio) ([1]; plasma): 0.70
18 | CCN(CC)CCNC(=O)c1cc(Cl)c(N)cc1OC [Metoclopramide] | 9.357 h | 3.200 L/kg | 0.342 L/h/kg | –
19 | Cc1ccccc1N1C(=O)c2cc(S(N)(=O)=O)c(Cl)cc2NC1C (stereo not shown) [Metolazone] | 19.048 h | 1.600 L/kg | 0.084 L/h/kg | –
20 | Cc1ncc([N+](=O)[O-])n1CCO [Metronidazole] | 7.843 h | 0.400 L/kg | 0.051 L/h/kg | –
21 | CC(C)(O)c1ccccc1CC[C@@H](SCC1(CC(=O)O)CC1)c1cccc(/C=C/c2ccc3ccc(Cl)cc3n2)c1 [Montelukast] | 3.676 h | 0.150 L/kg | 0.041 L/h/kg | –
22 | CN1CC[C@]23c4c5ccc(O)c4O[C@H]2[C@@H](O[C@@H]2O[C@H](C(=O)O)[C@@H](O)[C@H](O)[C@H]2O)C=C[C@H]3[C@H]1C5 [Morphine-6-Glucuronide, reference compound] | – | – | – | Rb_Human (blood-to-plasma concentration ratio) [1, 5]: 0.59
23 | CC(C)(C)NCC(O)COc1cccc2c1CC(O)C(O)C2 (stereo not shown) [Nadolol, reference compound] | – | – | – | Rb_Human (blood-to-plasma concentration ratio) [1, 5]: 0.85

Row | SMILES | in vivo MRT_(hr)_Human [2] | in vivo Vd_(L/kg)_Human [3, 7] | in vivo CL_(L/hr/kg)_Human [4, 9] | other results
24 | CN(C)C(=O)Oc1cccc([N+](C)(C)C)c1 [Neostigmine, reference compound] | – | – | – | Rb_Human (blood-to-plasma concentration ratio) [1, 5]: 1.07
25 | COC(=O)C1=C(C)NC(C)=C(C(=O)OCC(C)C)C1c1ccccc1[N+](=O)[O-] (stereo not shown) [Nisoldipine] | 6.111 h | 5.500 L/kg | 0.900 L/h/kg | –
26 | O=C1CN=C(c2ccccc2)c2cc([N+](=O)[O-])ccc2N1 [Nitrazepam] | 32.946 h | – | 0.052 L/h/kg | in vivo Vd_(L/kg)_Human ([3]; in vivo, iv): 1.700 L/kg
27 | CCOC(=O)C1=C(C)NC(C)=C(C(=O)OC)C1c1cccc([N+](=O)[O-])c1 (stereo not shown) [Nitrendipine, reference compound] | – | – | – | Rb_Human (blood-to-plasma concentration ratio) [1, 5]: 1.46
28 | O=C1CN(/N=C/c2ccc([N+](=O)[O-])o2)C(=O)N1 [Nitrofurantoin] | 0.979 h | 0.570 L/kg | – | fp_Human (free fraction in plasma) (plasma protein; [6]): 0.380
29 | CNCCC=C1c2ccccc2CCc2ccccc21 [Nortriptyline] | 36.667 h | 22.000 L/kg | 0.516 L/h/kg | –
30 | CC1COc2c(N3CCN(C)CC3)c(F)cc3c(=O)c(C(=O)O)cn1c23 (stereo not shown) [Ofloxacin] | 10.667 h | 1.600 L/kg | 0.150 L/h/kg | –
31 | Cc1nccn1CC1CCc2c(c3ccccc3n2C)C1=O (stereo not shown) [Ondansetron] | 5.172 h | 1.800 L/kg | 0.354 L/h/kg | –
32 | CC(=O)O[C@H]1C[C@@H]2CC[C@@H]3[C@H](CC[C@@]4(C)[C@H]3C[C@H]([N+]3(C)CCCCC3)[C@@H]4OC(C)=O)[C@@]2(C)C[C@@H]1[N+]1(C)CCCCC1 [Pancuronium] | 2.222 h | – | – | fp_Human (free fraction in plasma) (plasma protein; [6]): 0.090; in vivo Vd_(L/kg)_Human ([3]; in vivo, iv): 0.200 L/kg
33 | CCC1(c2ccccc2)C(=O)NC(=O)NC1=O [Phenobarbital] | 150.000 h | – | – | fp_Human (plasma protein): 0.505; in vivo Vd_(L/kg)_Human ([3]; in vivo, iv): 0.540 L/kg; in vivo CL_(L/hr/kg)_Human [4, 10]: 0.0036 L/h/kg
34 | CC(C)c1cccc(C(C)C)c1O [Propofol] | 2.176 h | – | – | fp_Human (plasma protein): 0.020; in vivo Vd_(L/kg)_Human ([3]; in vivo, iv): 4.700 L/kg; in vivo CL_(L/hr/kg)_Human ([4]; in vivo, iv): 2.160 L/h/kg
35 | CCN1CCC[C@H]1CNC(=O)c1c(OC)ccc(Br)c1OC [Remoxipride] | 6.373 h | – | – | in vivo Vd_(L/kg)_Human [3, 11]: 0.650 L/kg; in vivo CL_(L/hr/kg)_Human [4, 10]: 0.102 L/h/kg
36 | O=C(O)CCCCO/N=C(/c1cccnc1)c1cccc(C(F)(F)F)c1 [Ridogrel] | 6.825 h | – | – | in vivo Vd_(L/kg)_Human [3, 11]: 0.430 L/kg; in vivo CL_(L/hr/kg)_Human [4, 10]: 0.063 L/h/kg
37 | CCN(C)C(=O)Oc1cccc([C@H](C)N(C)C)c1 [Rivastigmine] | 1.806 h | – | – | fp_Human (plasma protein): 0.600; in vivo Vd_(L/kg)_Human ([3]; in vivo, iv): 1.300 L/kg; in vivo CL_(L/hr/kg)_Human [4, 10]: 0.720 L/h/kg
38 | CCN(CC)CCNC(=O)c1ccc(NS(C)(=O)=O)cc1 [Sematilide] | 3.694 h | – | – | in vivo Vd_(L/kg)_Human [3, 11]: 0.820 L/kg; in vivo CL_(L/hr/kg)_Human [4, 10]: 0.222 L/h/kg
39 | CCCCCc1cc(O)c2c(c1)OC(C)(C)[C@@H]1CCC(C)=C[C@@H]21 [Tetrahydrocannabinol] | 46.354 h | – | – | fp_Human (plasma protein): 0.085; in vivo Vd_(L/kg)_Human ([3]; in vivo, iv): 8.900 L/kg; in vivo CL_(L/hr/kg)_Human [4, 10]: 0.192 L/h/kg
40 | CCCC(C)C1(CC)C(=O)NC(=S)NC1=O (stereo not shown) [Thiopental] | 2.439 h | – | – | fp_Human (plasma protein): 0.140; in vivo Vd_(L/kg)_Human ([3]; in vivo, iv): 1.200 L/kg; in vivo CL_(L/hr/kg)_Human ([4]; in vivo, iv): 0.363 L/h/kg
41 | COc1cccc(C2(O)CCCCC2CN(C)C)c1 (stereo not shown) [Tramadol] | 7.179 h | – | – | fp_Human (plasma protein): 0.800; in vivo Vd_(L/kg)_Human ([3]; in vivo, iv): 2.800 L/kg; in vivo CL_(L/hr/kg)_Human [4, 10]: 0.390 L/h/kg
42 | Cc1nnc2n1-c1ccc(Cl)cc1C(c1ccccc1Cl)=NC2 [Triazolam] | 3.222 h | – | – | fp_Human (plasma protein): 0.100; in vivo Vd_(L/kg)_Human ([3]; in vivo, iv): 0.580 L/kg
43 | CCCCC(=O)N(Cc1ccc(-c2ccccc2-c2nnn[nH]2)cc1)[C@H](C(=O)O)C(C)C [Valsartan] | 7.483 h | – | – | fp_Human (plasma protein): 0.040; in vivo Vd_(L/kg)_Human [3, 11]: 0.220 L/kg; in vivo CL_(L/hr/kg)_Human [4, 10]: 0.029 L/h/kg
44 | CC(=O)O[C@H]1C[C@@H]2CC[C@@H]3[C@H](CC[C@@]4(C)[C@H]3C[C@H]([N+]3(C)CCCCC3)[C@@H]4OC(C)=O)[C@@]2(C)C[C@@H]1N1CCCCC1 [Vecuronium Bromide] | 1.111 h | – | – | fp_Human (plasma protein): 0.250; in vivo Vd_(L/kg)_Human ([3]; in vivo, iv): 0.300 L/kg; in vivo CL_(L/hr/kg)_Human [4, 10]: 0.327 L/h/kg
45 | Cc1ccc(-c2nc3ccc(C)cn3c2CC(=O)N(C)C)cc1 [Zolpidem] | 2.093 h | – | – | fp_Human (plasma protein): 0.060; in vivo Vd_(L/kg)_Human ([3]; in vivo, iv): 0.540 L/kg; in vivo CL_(L/hr/kg)_Human [4, 10]: 0.258 L/h/kg
